This note sets out measurements from patent publication US9994515B2, “Aryl naphthyl methanone oxime(s) and process for preparation thereof” (Council of Scientific & Industrial Research, priority 2013, dated 2018).

pIC50: −log10 of the molar value. Structures can show the parent of a compound that is named as a salt. Where two headings read alike, the source gives them in different places. Where only a bound is given, the exact number is not on record here.

For one data set, the system named is HL60. Description: MTT cytotoxicity assay in HL-60 cells. The class given is cell-based.
Another data set deals with MCF-7. Description: MTT assay in MCF-7 breast tumor cells. Type of data set: cell-based. The settings on record: Homo sapiens, MCF7, Table 6, 48 h, 10 point dose response. (In general: Tetrazolium assays rely on reduction of a dye to a coloured formazan, in cell work by metabolically active cells.)
The next data set has as its system MDA-MB231. Kind of data set: MTT assay in MDA-MB-231 breast tumor cells. Type of data set: cell-based. As to conditions: Homo sapiens, MDA-MB-231, Table 6, 48 h, 10 point dose response.
The next data set has as its system NIH3T3. Kind of data set: MTT cytotoxicity assay in NIH3T3 fibroblasts. Type of data set: cell-based, mouse. How it is done:
(§1) To consider a molecule as a candidate compound in cancer drug therapy, the test compound must have specific cytotoxicity towards the cancer cells without affecting normal cell growth. Therefore, all active compounds were assessed for toxicity in non-cancer cell-lines: mouse fibroblast cell line (NIH3T3) and monkey kidney epithelial cells (Vero). […] Therefore, based on safety index ([…]), 5d [Centans; based on IUPAC name prefixed with Central Drug Research Institute's signature (Cent)] was selected as a lead compound.

Another data set relates to Kasumi 1. Kind of data set: Cytotoxicity in Kasumi 1 cells. Type of data set: cell-based.
The subject of another data set is DU-145. Kind of data set: MTT assay in DU-145 prostate tumor cells. Type of data set: cell-based. As to conditions: Homo sapiens, DU-145, Table 6, 48 h, 10 point dose response.
The test system of another data set is U937. Description: Cytotoxicity in U937 cells. The class given is cell-based.
The test system of a further data set is Vero. Kind of data set: Cytotoxicity in Vero kidney epithelial cells. The class given is cell-based, monkey. The settings on record: Primates, Vero; Table 2; normal cell line. How it is done: as §1
The test system of a further data set is Ishikawa. Kind of data set: MTT assay in Ishikawa endometrial adenocarcinoma cells. The settings on record: Homo sapiens, Ishikawa, Table 6, 48 h, 10 point dose response. Type of data set: cell-based.
The next data set relates to K562. Description: MTT cytotoxicity assay in K562 cells. The class given is cell-based.
The subject of data set [1] is CD133+ DLD1 colon cancer cells. Description: CD133+ colon cancer stem cell population by flow cytometry. The class given is cell-based. The settings on record: 20 uM, 24 h, vehicle 15.30%. How it is done:
FIG. 9. Centans reduces CD133+ colon cancer stem cells with a higher efficacy than salinomycin. DLD1 colon cancer cells were treated with indicated compounds for 24h following which the CD133+ population was assessed by flow cytometry using CD133 antibody or relevant isotype control antibody (BD biosciences) in a Becton Dickinson FACS Calibur. Numbers in the dot plot represent % CD133+ cells.

Data set [2] relates to PBMCs isolated from healthy individuals. Kind of data set: MTT cytotoxicity in PBMCs from healthy controls. As to conditions: 1 μM, 48 h; for % cell death, Average: healthy control, average of C1-C3.
[3] abbreviates: Homo sapiens, HL-60, 48 h, Table 1, MTT assay after 48 h treatment.
The mark [4] stands for this setting: Mus musculus, NIH3T3, 48 h, Table 1, MTT assay after 48 h treatment.
The mark [5] stands for this setting: Mus musculus, NIH3T3, Table 2, normal cell line.
Where [6] appears, read: Homo sapiens, Kasumi 1, Table 2.
Where [7] appears, read: Homo sapiens, K562, 48 h, Table 1, MTT assay after 48 h treatment.
Where [8] appears, read: Table 1, MTT assay after 48 h treatment, fumarate.

What is called melting point is the temperature, or range, at which the solid turns liquid.

With `CSc1ccc(/C(=N/OCCCN(C)C)c2cccc3ccccc23)cc1` [Compound 5m, (4-(methylthio)phenyl)(naphthalen-1-yl)methanone O-3-(dimethylamino)propyl oxime oxalate], the pIC50 is 5.11 in the data set with HL60 (setting [3]); 5.11 in the data set with HL60 (Homo sapiens, HL-60, Table 2); 5.10 in the data set on MCF-7; 5.14 in the data set with MDA-MB231; under 4.60 with NIH3T3 (setting [4]); under 4.60 in the data set on NIH3T3 (setting [5]). Also, the pIC50 in the data set with Kasumi 1 (setting [6]) is under 5.00; in the data set with DU-145, 5.02; in the data set with U937 (Homo sapiens, U-937, Table 2), under 4.82; with Vero, under 4.60; with Ishikawa, 5.15; in the data set with K562 (setting [7]), 5.32. This compound also showed a pIC50 with K562 (Homo sapiens, K562, Table 2) of 5.32.

Consider `CC[C@@H](C(=O)[C@@H](C)[C@@H](O)[C@H](C)[C@@H]1O[C@@H]([C@@H](CC)C(=O)O)CC[C@@H]1C)[C@H]1O[C@]2(C=C[C@@H](O)[C@]3(CC[C@@](C)([C@H]4CC[C@](O)(CC)[C@H](C)O4)O3)O2)[C@H](C)C[C@@H]1C` [salinomycin], for which, in data set [1], the “CD133+ population after treatment (minus isotype control)” value worked out at 5.42%.

Turning to `CSc1ccc(/C(=N/OCCCN2CCOCC2)c2cccc3ccccc23)cc1` [Compound 7b, (4-(methylthio)phenyl)(naphthalen-1-yl)methanone O-3-morpholinopropyl oxime], the melting point came out at 89 °C. This compound also had a pIC50 in the data set on HL60 (setting [3]) of under 4.30. Moreover, the pIC50 in the data set on MCF-7 is under 4.30. In addition, in the data set with MDA-MB231, the pIC50 was under 4.30. This compound had a pIC50 in the data set on NIH3T3 (setting [4]) of under 4.30. For the same compound, the pIC50 with DU-145 was under 4.30. For the same compound, the pIC50 in the data set on Ishikawa is under 4.30. The pIC50 in the data set on K562 (setting [7]) was under 4.30.

In the case of `CSc1ccc(/C(=N/OCCCN2CCC(C)CC2)c2cccc3ccccc23)cc1` [Compound 7c, (4-(methylthio)phenyl)(naphthalen-1-yl)methanone O-3-(4-methylpiperidin-1-yl)propyl oxime oxalate], the pIC50 in the data set on HL60 (setting [3]) was under 4.30; with HL60 (Homo sapiens, HL-60, Table 2) it was under 4.30; in the data set with MCF-7, 5.19; in the data set with MDA-MB231, 4.70; in the data set on NIH3T3 (setting [4]) it was 4.68; in the data set on NIH3T3 (setting [5]) it was 4.68. Also, the pIC50 was 4.72 in the data set on Kasumi 1 (setting [6]); 5.00 in the data set with DU-145; under 4.60 in the data set on U937 (Homo sapiens, U-937, Table 2); under 4.60 in the data set on Vero; under 4.30 in the data set on Ishikawa; 5.24 with K562 (setting [7]). In addition, in the data set on K562 (Homo sapiens, K562, Table 2), the pIC50 was 5.24.

As for `CCN(CC)CCO/N=C(/c1ccc(SC)cc1)c1cccc2ccccc12` [Compound 5j, (4-(methylthio)phenyl)(naphthalen-1-yl)methanone O-2-(diethylamino)ethyl oxime fumarate], the pIC50 with HL60 (setting [8]) was 5.00; with HL60 (Table 2, fumarate), 5.00; in the data set on NIH3T3 (setting [8]), 4.60; in the data set on NIH3T3 (Table 2, normal cell line, fumarate) it was 4.60; in the data set on Kasumi 1 (Table 2, fumarate), 4.70; in the data set with U937 (Table 2, fumarate), under 4.62. Also, the pIC50 in the data set with K562 (setting [8]) is 5.07; with K562 (Table 2, fumarate), 5.07.

As to `COc1ccc(/C(=N/OCCN(C(C)C)C(C)C)c2cccc3ccccc23)cc1` [Compound 6e, (4-methoxyphenyl)(naphthalen-1-yl)methanone O-2-(diisopropylamino)ethyl oxime oxalate], the pIC50 is under 4.30 in the data set with HL60 (setting [3]); 4.64 in the data set with MCF-7; under 4.30 with MDA-MB231; under 4.30 in the data set with NIH3T3 (setting [4]); under 4.30 with DU-145; under 4.30 with Ishikawa. The pIC50 in the data set on K562 (setting [7]) is under 4.30.

In the case of `COc1ccc(/C(=N/OCCN2CCCCC2)c2cccc3ccccc23)cc1` [Compound 6a, (4-methoxyphenyl)(naphthalen-1-yl)methanone O-2-(piperidin-1-yl)ethyl oxime oxalate], the pIC50 with HL60 (setting [3]) was under 4.30; in the data set on MCF-7, 4.74; with MDA-MB231, under 4.30; in the data set with NIH3T3 (setting [4]), under 4.30; with DU-145, under 4.30; in the data set on Ishikawa, under 4.30. This compound also gave a pIC50 with K562 (setting [7]) of under 4.30.

Regarding `COc1ccc(/C(=N/OCCN2CCCC2)c2cccc3ccccc23)cc1` [Compound 6b, (4-methoxyphenyl)(naphthalen-1-yl)methanone O-2-(pyrrolidin-1-yl)ethyl oxime oxalate], the pIC50 was under 4.30 with HL60 (setting [3]); 4.60 in the data set on MCF-7; under 4.30 with MDA-MB231; under 4.30 in the data set with NIH3T3 (setting [4]); under 4.30 in the data set with DU-145; under 4.30 in the data set with Ishikawa. In the data set with K562 (setting [7]), the pIC50 was under 4.30.

For `Cc1nc(Nc2ncc(C(=O)Nc3c(C)cccc3Cl)s2)cc(N2CCN(CCO)CC2)n1` [Dasatinib], the pIC50 in the data set on HL60 (Homo sapiens, HL-60, 48 h, Table 3, MTT, 48 h, 10 point dose response, read-out: IC 50 HL 60) is 5.16; in the data set with K562 (Homo sapiens, K562, 48 h, Table 3, MTT, 48 h, 10 point dose response, read-out: IC 50 K562), 5.17. The “% cell death” value in data set [2] (healthy control sample C1) was 2.39%; in data set [2] (healthy control sample C2) it was 12.03%; in data set [2] (healthy control sample C3), 18.93%. Further, the “% cell death, Average” value in data set [2] was 11.12%.

Regarding `Cc1ccc(NC(=O)c2ccc(CN3CCN(C)CC3)cc2)cc1Nc1nccc(-c2cccnc2)n1` [Imatinib], in data set [2] (healthy control sample C1), the “% cell death” value is recorded as 10.51%. Moreover, the “% cell death, Average” value in data set [2] worked out at 16.12%.

As for `CSc1ccc(/C(=N/OCCCN2CCCCC2)c2cccc3ccccc23)cc1` [Compound 7a, (4-(methylthio)phenyl)(naphthalen-1-yl)methanone O-3-(piperidin-1-yl)propyl oxime oxalate], the pIC50 in the data set with HL60 (setting [3]) is under 4.30; with MCF-7, 5.30; with MDA-MB231 it was 4.70; in the data set on NIH3T3 (setting [4]) it was under 4.30; in the data set with DU-145, 4.82; in the data set on Ishikawa, 4.92. Further, the pIC50 in the data set on K562 (setting [7]) is under 4.70.

The compound `CSc1ccc(/C(=N/O)c2cccc3ccccc23)cc1` [Compound 4a, (4-(methylthio)phenyl)(naphthalen-1-yl)methanone oxime] came in with a melting point of 135 °C. Further, the pIC50 in the data set on HL60 (setting [3]) was under 4.30. In the data set on MCF-7, the pIC50 is 4.74. This compound also had a pIC50 in the data set on MDA-MB231 of 4.70. For the same compound, in the data set with NIH3T3 (setting [4]), the pIC50 was under 4.30. Moreover, in the data set on DU-145, the pIC50 was under 4.30. The compound further gave a pIC50 in the data set on Ishikawa of under 4.30. The compound also showed a pIC50 with K562 (setting [7]) of under 4.30.

Regarding `CSc1ccc(/C(=N/OCCCCN2CCCCC2)c2cccc3ccccc23)cc1` [Compound 8a, (4-(methylthio)phenyl)(naphthalen-1-yl)methanone O-4-(piperidin-1-yl)butyl oxime], the pIC50 is 4.80 in the data set with HL60 (setting [3]); 5.10 with MCF-7; 4.74 with MDA-MB231; 4.70 in the data set on NIH3T3 (setting [4]); 5.12 with DU-145; 4.74 in the data set on Ishikawa. This compound had a pIC50 in the data set on K562 (setting [7]) of 5.20.

In the case of `CSc1ccc(/C(=N/OCCN2CCCCC2)c2cccc3ccccc23)cc1` [Compound 5a, (4-(methylthio)phenyl)(naphthalen-1-yl)methanone O-2-(piperidin-1-yl)ethyl oxime oxalate], the pIC50 is under 4.70 with HL60 (setting [3]); under 4.70 in the data set with HL60 (Homo sapiens, HL-60, Table 2); 4.87 in the data set with MCF-7; 5.06 with MDA-MB231; 4.82 in the data set on NIH3T3 (setting [4]); 4.82 in the data set on NIH3T3 (setting [5]). The pIC50 was 4.57 in the data set with Kasumi 1 (setting [6]); 5.00 in the data set on DU-145; under 4.74 with U937 (Homo sapiens, U-937, Table 2); under 4.60 in the data set on Vero; 5.00 in the data set with Ishikawa; 5.24 with K562 (setting [7]). For the same compound, the pIC50 with K562 (Homo sapiens, K562, Table 2) was 5.24.

For the compound `CCN(CC)CCO/N=C(/c1ccc(OC)cc1)c1cccc2ccccc12` [Compound 6d, (4-methoxyphenyl)(naphthalen-1-yl)methanone O-2-(diethylamino)ethyl oxime oxalate], the pIC50 in the data set on HL60 (setting [3]) was under 4.30; in the data set on MCF-7 it was 4.70; in the data set on MDA-MB231 it was under 4.30; in the data set on NIH3T3 (setting [4]), under 4.30; in the data set on DU-145 it was under 4.30; in the data set on Ishikawa, under 4.30. Also, the pIC50 with K562 (setting [7]) is under 4.30.
